Assay results reported in patent US20220033405A1, “PHARMACEUTICAL COMPOSITION FOR PREVENTING OR TREATING CANCER CONTAINING PLK1 INHIBITOR AS ACTIVE INGREDIENT” (NATIONAL CANCER CENTER, priority 2018, published 2022).

Assays:
[1] = tested on: HepG2 orthotopic xenograft; test: Liver cancer orthotopic xenograft model (HepG2), 19 injections; type: in vivo, BalB/c nude mice; details: M2 9.1 mg/kg, BI2536 1 mg/kg, 19 injections
Description: 5×10^6 HepG2 cells, which are a hepatocellular carcinoma cell line, were injected into the back skin of BalB/c nude mice, and when a sufficient cancer tissue was formed about 3 weeks later, the tissue was removed, uniformly cut into 1 mm^3, and transplanted into the right median lobe of the liver by excising the abdomen within 1 cm.
The doses of 9.1 mg/kg of M2 and 1 mg/kg of BI2536 were selected based on the present inventor's previous in vitro experiments on HCC cells. Administration began 7 days after cell injection, and an equivalent amount of DMSO for the highest concentration of drug was used as a solvent control for each experiment. Each drug was injected a total of 19 injections based on 5 times/week.

[2] = tested on: PLK1; test: PLK1 position in the cell (r-tubulin, PLK1, DAPI staining); type: cell-based
[3] = tested on: HepG2 cell; test: Apoptosis by annexin V-FITC / PI flow cytometry; type: cell-based; details: HepG2, 3 days; M2 20 or 100 μM; BI2536 20 or 100 nM
Description: To analyze the pattern of apoptosis by exposure to M2, HepG2 cell, a hepatocellular carcinoma cell line, were treated with 20 or 100 μM M2 and 20 or 100 nM BI2536 for 3 days. The apoptosis was detected by annexin V-fluorescein isothiocyanate (annexin V-FITC) and propidium iodide (PI) staining of necrotic and apoptosis cells. First, cells were harvested and washed once with PBS. The cells were then resuspended in a 100 μl binding buffer containing 4 μl of Annexin V (BD, 51-65874X) and PI (BD, 51-66211E). The cells were stained at 37° C. for 15 minutes in the dark and then analyzed using FACSan (BD, San Jose, Calif.). Data was analyzed using CELLQuest software (BD).

[4] = tested on: SNU-449; test: Cell cycle by flow cytometry, phospho-histone H3 (Ser10) staining; type: cell-based; details: M2 20, 40, 80 μM, BI2536 20 nM
Description: Flow cytometry equipment was used to confirm the effect on the cell cycle in the case of treatment with Compound 2 (M2). SNU-449, which is one of the liver cancer cell lines, were treated with Compound 2 (M2) at each of concentrations of 20, 40, and 80 μM after 1 day and 3 days, and were harvested after another 2 days.
Furthermore, it was intended to more specifically stain a cell population that stopped in the metaphase of cell division using a phospho-histone H3 (Ser10) antibody capable of specifically staining only the cells that stopped in the metaphase of cell division. As a positive control, cells were treated with BI2536 known as a PLK1 kinase inhibitor at 20 nM and used to observe cells in the metaphase of cell division and an increase in the G2/M phase.

[5] = tested on: HepG2 cells; test: Cell viability after treatment (Hoechst 33342); type: cell-based; details: HepG2, various concentrations, two treatments 48 hours apart
Description: HepG2 cells, a hepatocellular carcinoma cell line, were plated with 4 to 6 replications at each hit compound concentration in a 96-well microtiter plate supplemented with a culture medium. The hit compound dissolved in DMSO was added the next day according to the design of experiments, and the number of seeded cells was determined by the cell density reaching 80% on the final day of the protocol treated as a cell control. After 24 hours of cell seeding, cells were treated with hit compounds (M2 and BI2536) at various concentrations, and 48 hours after primary treatment, the medium was aspirated and then secondary treatment was performed. After 48 hours, cell nuclei were visualized by 2.5 μM Hoechst 33342 staining at 37° C. for 30 minutes, then the medium was aspirated and washed with a fresh medium. The plate was read using Cytation™ 3 (BioTek, USA), the cell viability was analyzed, and the results were presented as a relative percentage of viable cells after treatment with the hit compound compared to the control treatment.

[6] = Toxicity test, histopathological analysis of organs; type: in vivo, mouse; details: 1, 5 and 10 mg/kg intraperitoneally 3 times weekly, 2 weeks
Description: Compound 4 (M21) was diluted in 300 μl of PBS and intraperitoneally injected 3 times weekly at 1 mg/kg, 5 mg/kg and 10 mg/kg per body weight of a mouse, respectively, and DMSO diluted in 300 μl of PBS was intraperitoneally injected at 3% in the control. After 2 weeks, the lungs, heart, liver, kidneys, spleen and skin were removed by sacrificing mice, and fixed in a formalin solution.

[7] = biological target: T1, PBD of PLK1 (GST-tagged target protein) (Homo sapiens, UniProt P53350); test: IC50 measurement by FP assay; type: binding; details: FITC-labeled 1010pT peptide
T1 construct: made in house
T1 sequence (P53350 367-603 limits assumed): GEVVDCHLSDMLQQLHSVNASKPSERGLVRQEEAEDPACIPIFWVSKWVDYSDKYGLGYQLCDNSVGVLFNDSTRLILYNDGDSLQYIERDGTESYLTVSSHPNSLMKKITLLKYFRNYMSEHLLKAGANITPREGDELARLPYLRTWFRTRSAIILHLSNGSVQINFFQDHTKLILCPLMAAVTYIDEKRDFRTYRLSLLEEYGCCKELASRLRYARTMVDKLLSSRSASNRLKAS
Description: The IC50 of the compound was intended to be analyzed by performing the FP assay shown in Example 1 on the compound and the hit compound discovered by the primary and secondary compound screening and various derivatives thereof. For this purpose, a target protein to which GST-tag was bound was isolated using a GST resin, and 15 mg/ml of the pure target protein to which GST-tag was bound was obtained by finally performing gel filtration. The target protein was diluted with a reaction buffer and prepared at each of concentrations of 12 uM, 3 uM, and 1.5 uM, and an FITC-bound peptide (FITC-labeled 1010pT (GVLS-pT-LI-NH2)) stored in a brown tube was diluted with a reaction buffer and prepared at a concentration of 30 nM. Further, the compound at a concentration of 100 mM was diluted with a reaction buffer and prepared at each of 160.0 uM, 80.0 uM, 40.0 uM, 20.0 uM, 10.0 uM, 5.0 uM, 2.5 uM, 1.25 uM, 0.625 uM, 0.3125 uM, 0.15625 uM, and 0.0 uM. […] When the reaction was completed, the fluorescence polarization value was measured using Infinite F200 Pro (TECAN Group Ltd, Switzerland) after setting the excitation wavelength and the emission wavelength to 485 nm and 535 nm, respectively, and setting the G-Factor to 1.077. […] Binding curves were analyzed using Graphpad Prism (GraphPad Software, San Diego, Calif., USA).

[8] = biological target: T2, PBD domain of PLK1 (PLK1-PBD protein) (Homo sapiens, UniProt P53350); test: Compound screening by fluorescence polarization (FP) competition assay; type: binding; details: FITC-labeled 1010pT peptide + PLK1-PBD; about 300 with no compound added
T2 construct: a 4 μM PLK1-PBD protein
T2 sequence (P53350 367-603 limits assumed): as above
Description: For this purpose, a fluorescence polarization competition assay was performed by mixing a conjugate of a PBD site of PLK1 purified in a solution and a peptide (FITC-labeled 1010pT (GVLSpTLI-NH2)) to which FITC fluorescence was bound with a low molecular weight compound to be screened.
More specifically, after a reaction was performed at room temperature for 30 minutes by preparing a 4 μM PLK1-PBD protein, a 10 nM peptide (FITC-labeled 1010pT (GVLSpTLI-NH2)), and a 20 μl candidate compound at each concentration and putting the respective components into a black 96-well plate for mixing, fluorescence polarization (mp) values were measured using Infinite F200 Pro (TECAN Group Ltd, Switzerland). An average value was derived by performing this experiment three times by the same method, and the excitation wavelength and the emission wavelength were set at 485 nm and 535 nm, respectively.

CC[C@@H]1C(=O)N(C)c2cnc(Nc3ccc(C(=O)NC4CCN(C)CC4)cc3OC)nc2N1C1CCCC1 [BI2536, reference compound]
progression of the HCC xenograft calculated by the growth inhibition index [1]: suppressed the progression of the HCC xenograft | growth of tumor cells (macroscopic morphology, MRI) ([1]; 5 times/week): the growth of tumor cells was suppressed | chromosome segregation [2]: abnormal chromosome segregation was observed | position of PLK1 ([2]; middle stage of cell division): did not seem to make a relatively large difference | r-tubulin located in the centrosome (staining / position) ([2]; middle stage of cell division): did not seem to make a relatively large difference | apoptosis cells [3]: apoptosis cells were increased | apoptosis with increasing dose [3]: apoptosis was increased in a dose-dependent manner | proportion of polyploid cells [4]: remarkably increased | proportion of phospho-histone H3-positive cells ([4]; compared to CT): increase in the proportion | cell viability [5]: the relatively less the cell viability became

Cn1c2nc(=O)[nH]c(=O)c-2nc2cc(C(F)(F)F)ccc21 [Compound 4, 10-methyl-7-(trifluoromethyl)-2H,3H,4H,10H-benzo[g]pteridine-2,4-dione]
histopathological analysis of lungs, heart, liver, kidneys, spleen and skin [6]: No change by separate acute toxicity was observed

O=C(O)c1ccc2[nH]c3nc(=O)[nH]c(=O)c-3nc2c1 [Compound 1, 2,4-Dioxo-1,2,3,4-tetrahydrobenzo[g]pteridine-7-carboxylic acid]
IC50 [7]: ~25 µM | fluorescence polarization value [8]: 180 mp
